Source: paper PMC6576746, “Rational discovery of dual-indication multi-target PDE/Kinase inhibitor for precision anti-cancer therapy using structural systems pharmacology” (PLoS Computational Biology, 2019)

Key:
Assay in all cases: biochemical
Parameters in all cases: DiscoverX KinomeScan competition binding assay across human kinases; per cent of control at 10 and 100 uM
[1] = biological target: T1, ABL1(Q252H)-nonphosphorylated (Homo sapiens, UniProt P00519, Q252H); settings: competition binding, % of control; read-out: Percent Control (100 uM Levosimendan)
T1 construct: nonphosphorylated
Outline: (§1)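 Binding is expressed as %control, normalised between positive and negative control signals. The compound (levosimendan) was tested at 10 μM and 100 μM in the DiscoverX KinomeScan competition binding format against human kinases.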

[2] = biological target: BMX (Homo sapiens, UniProt P51813); settings: competition binding, % of control; read-out: Percent Control (100 uM Levosimendan)
Outline: as §1

[3] = biological target: CAMK2G (Homo sapiens, UniProt Q13555); settings: competition binding, % of control; read-out: Percent Control (100 uM Levosimendan)
Outline: as §1

[4] = biological target: T2, CDK11 (Homo sapiens, UniProt Q9BWU1); settings: competition binding, % of control; read-out: Percent Control (100 uM Levosimendan)
T2 construct: gene CDK19
Outline: as §1

[5] = biological target: CSK (Homo sapiens, UniProt P41240); settings: competition binding, % of control; read-out: Percent Control (100 uM Levosimendan)
Outline: as §1

[6] = biological target: CSNK1G2 (Homo sapiens, UniProt P78368); settings: competition binding, % of control
Sequence of CSNK1G2 (P78368 whole entry): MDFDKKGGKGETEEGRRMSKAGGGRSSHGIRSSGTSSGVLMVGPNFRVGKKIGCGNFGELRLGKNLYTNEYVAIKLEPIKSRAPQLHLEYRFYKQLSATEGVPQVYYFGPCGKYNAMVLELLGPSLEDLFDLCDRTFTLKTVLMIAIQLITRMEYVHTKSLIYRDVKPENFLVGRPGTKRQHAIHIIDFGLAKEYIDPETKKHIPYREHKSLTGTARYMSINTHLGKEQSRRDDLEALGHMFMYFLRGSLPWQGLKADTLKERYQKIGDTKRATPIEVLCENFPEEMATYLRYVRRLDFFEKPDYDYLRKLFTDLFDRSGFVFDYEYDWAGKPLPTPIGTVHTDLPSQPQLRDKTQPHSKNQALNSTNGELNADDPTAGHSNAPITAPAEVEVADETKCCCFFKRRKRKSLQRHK
Outline: as §1

[7] = biological target: DMPK (Homo sapiens, UniProt Q09013); settings: competition binding, % of control
Sequence of DMPK (Q09013 whole entry): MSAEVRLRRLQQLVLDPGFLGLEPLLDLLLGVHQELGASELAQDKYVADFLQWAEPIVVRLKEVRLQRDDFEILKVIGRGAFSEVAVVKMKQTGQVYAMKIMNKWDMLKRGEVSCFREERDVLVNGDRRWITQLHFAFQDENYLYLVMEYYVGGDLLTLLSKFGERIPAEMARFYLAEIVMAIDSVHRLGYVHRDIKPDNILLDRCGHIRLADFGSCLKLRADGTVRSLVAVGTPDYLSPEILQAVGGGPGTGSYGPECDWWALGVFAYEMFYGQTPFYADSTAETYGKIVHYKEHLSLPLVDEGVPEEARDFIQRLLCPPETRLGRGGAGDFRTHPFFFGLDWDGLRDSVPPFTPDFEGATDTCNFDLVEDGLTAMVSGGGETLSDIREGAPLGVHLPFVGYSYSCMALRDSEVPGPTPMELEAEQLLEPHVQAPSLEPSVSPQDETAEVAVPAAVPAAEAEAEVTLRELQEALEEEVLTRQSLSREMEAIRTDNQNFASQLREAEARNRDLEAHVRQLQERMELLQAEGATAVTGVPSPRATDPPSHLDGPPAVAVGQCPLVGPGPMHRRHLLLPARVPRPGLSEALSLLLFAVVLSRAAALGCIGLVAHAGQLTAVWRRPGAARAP
Outline: as §1

[8] = biological target: FGFR3(G697C) (Homo sapiens, UniProt P22607, G697C); settings: competition binding, % of control; read-out: Percent Control (100 uM Levosimendan)
Sequence of FGFR3(G697C) (P22607 whole entry G697C): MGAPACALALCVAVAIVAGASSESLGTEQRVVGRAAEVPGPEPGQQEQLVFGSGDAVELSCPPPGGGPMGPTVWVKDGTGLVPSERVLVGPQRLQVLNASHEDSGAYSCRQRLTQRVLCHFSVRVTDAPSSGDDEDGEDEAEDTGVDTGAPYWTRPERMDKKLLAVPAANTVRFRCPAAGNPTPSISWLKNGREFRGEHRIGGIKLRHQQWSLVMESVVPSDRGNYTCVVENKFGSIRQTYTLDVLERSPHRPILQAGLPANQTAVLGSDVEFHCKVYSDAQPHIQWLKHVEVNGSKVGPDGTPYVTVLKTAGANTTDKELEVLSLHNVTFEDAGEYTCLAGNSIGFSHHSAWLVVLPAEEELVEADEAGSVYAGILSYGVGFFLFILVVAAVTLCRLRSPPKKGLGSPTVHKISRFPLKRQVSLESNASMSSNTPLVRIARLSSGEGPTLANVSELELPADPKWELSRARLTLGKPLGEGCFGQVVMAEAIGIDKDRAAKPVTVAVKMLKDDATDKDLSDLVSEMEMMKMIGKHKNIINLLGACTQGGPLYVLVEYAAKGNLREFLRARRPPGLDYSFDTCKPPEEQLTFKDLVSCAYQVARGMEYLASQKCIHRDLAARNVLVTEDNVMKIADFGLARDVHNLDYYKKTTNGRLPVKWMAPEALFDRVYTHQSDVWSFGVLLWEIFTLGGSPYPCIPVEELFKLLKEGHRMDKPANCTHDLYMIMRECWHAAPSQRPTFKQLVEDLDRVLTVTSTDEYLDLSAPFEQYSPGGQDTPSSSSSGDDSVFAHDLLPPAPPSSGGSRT
Outline: as §1

[9] = biological target: LRRK2(G2019S) (Homo sapiens, UniProt Q5S007, G2019S); settings: competition binding, % of control; read-out: Percent Control (100 uM Levosimendan)
Outline: as §1

[10] = biological target: LYN (Homo sapiens, UniProt P07948); settings: competition binding, % of control; read-out: Percent Control (100 uM Levosimendan)
Outline: as §1

[11] = biological target: T3, OSR1 (Homo sapiens, UniProt O95747); settings: competition binding, % of control; read-out: Percent Control (100 uM Levosimendan)
T3 construct: gene OXSR1
Outline: as §1

[12] = biological target: PAK3 (Homo sapiens, UniProt O75914); settings: competition binding, % of control; read-out: Percent Control (100 uM Levosimendan)
Sequence of PAK3 (O75914 whole entry): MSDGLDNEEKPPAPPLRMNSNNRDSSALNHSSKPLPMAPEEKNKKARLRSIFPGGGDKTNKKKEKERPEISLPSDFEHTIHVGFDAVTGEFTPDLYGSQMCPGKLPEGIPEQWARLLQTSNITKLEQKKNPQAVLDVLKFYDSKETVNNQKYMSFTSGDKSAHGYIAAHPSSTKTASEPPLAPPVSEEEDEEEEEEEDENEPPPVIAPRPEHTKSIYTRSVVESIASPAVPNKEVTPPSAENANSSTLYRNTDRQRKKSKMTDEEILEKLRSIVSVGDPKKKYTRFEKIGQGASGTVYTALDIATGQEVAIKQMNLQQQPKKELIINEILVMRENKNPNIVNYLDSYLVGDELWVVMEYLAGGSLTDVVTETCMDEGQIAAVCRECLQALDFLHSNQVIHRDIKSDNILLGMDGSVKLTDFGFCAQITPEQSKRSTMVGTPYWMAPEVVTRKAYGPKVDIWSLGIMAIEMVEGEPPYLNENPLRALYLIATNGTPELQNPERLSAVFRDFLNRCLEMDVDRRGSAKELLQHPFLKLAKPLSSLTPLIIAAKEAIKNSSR
Outline: as §1

[13] = biological target: RIOK1 (Homo sapiens, UniProt Q9BRS2); settings: competition binding, % of control
Sequence of RIOK1 (Q9BRS2 whole entry): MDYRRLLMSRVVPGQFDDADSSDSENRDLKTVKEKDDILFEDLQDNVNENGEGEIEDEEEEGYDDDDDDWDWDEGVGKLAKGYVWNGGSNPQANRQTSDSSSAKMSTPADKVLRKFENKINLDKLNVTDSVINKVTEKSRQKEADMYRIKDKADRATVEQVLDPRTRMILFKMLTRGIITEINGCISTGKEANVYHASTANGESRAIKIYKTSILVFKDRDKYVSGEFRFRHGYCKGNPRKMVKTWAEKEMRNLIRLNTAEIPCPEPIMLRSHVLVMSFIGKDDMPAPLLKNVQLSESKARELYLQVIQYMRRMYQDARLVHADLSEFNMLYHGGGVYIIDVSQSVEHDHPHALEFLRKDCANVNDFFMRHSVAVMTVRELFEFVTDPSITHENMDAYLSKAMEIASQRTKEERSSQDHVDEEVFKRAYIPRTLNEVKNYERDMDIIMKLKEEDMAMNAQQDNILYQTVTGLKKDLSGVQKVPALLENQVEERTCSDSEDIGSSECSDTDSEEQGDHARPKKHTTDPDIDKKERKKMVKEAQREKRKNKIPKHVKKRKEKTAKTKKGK
Outline: as §1

[14] = biological target: ROCK2 (Homo sapiens, UniProt O75116); settings: competition binding, % of control
Sequence of ROCK2 (O75116 whole entry): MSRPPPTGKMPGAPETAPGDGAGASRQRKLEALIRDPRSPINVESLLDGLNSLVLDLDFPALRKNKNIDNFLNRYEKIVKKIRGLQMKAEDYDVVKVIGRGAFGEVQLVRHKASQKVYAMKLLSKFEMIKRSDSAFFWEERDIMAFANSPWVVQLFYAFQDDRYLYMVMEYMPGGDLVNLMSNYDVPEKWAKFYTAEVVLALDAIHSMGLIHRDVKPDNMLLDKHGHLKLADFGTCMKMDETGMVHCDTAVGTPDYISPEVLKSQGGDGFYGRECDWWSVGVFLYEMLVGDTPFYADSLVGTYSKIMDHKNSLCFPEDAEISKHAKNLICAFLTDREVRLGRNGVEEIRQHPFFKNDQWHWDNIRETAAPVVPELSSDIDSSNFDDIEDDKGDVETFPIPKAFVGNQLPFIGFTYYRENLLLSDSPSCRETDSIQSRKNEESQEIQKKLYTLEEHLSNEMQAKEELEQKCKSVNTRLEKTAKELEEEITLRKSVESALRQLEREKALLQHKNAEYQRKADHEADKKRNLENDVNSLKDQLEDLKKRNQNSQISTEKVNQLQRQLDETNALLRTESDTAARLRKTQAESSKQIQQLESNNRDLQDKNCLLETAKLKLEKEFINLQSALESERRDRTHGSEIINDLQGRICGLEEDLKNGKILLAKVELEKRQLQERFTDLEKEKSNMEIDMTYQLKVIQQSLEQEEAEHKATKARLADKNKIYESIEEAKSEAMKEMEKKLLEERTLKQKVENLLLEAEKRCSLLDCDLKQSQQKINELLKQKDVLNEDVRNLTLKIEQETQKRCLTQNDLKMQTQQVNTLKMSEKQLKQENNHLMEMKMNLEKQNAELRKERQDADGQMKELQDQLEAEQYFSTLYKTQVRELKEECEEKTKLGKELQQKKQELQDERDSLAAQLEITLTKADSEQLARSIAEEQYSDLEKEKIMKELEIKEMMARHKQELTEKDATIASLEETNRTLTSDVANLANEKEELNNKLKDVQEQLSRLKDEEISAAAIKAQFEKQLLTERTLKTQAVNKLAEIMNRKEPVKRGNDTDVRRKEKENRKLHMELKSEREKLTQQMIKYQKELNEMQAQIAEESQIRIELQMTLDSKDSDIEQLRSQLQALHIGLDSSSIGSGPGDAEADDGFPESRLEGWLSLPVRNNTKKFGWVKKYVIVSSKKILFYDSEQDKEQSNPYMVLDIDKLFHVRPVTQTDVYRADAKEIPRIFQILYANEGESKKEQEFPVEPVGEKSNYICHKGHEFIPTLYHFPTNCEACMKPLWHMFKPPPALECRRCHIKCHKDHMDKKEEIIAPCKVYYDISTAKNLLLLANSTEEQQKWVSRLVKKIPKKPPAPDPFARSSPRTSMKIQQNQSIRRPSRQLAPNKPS
Outline: as §1

[15] = biological target: T4, RSK1(Kin.Dom.2-C-terminal) (Homo sapiens, UniProt Q15418); settings: competition binding, % of control; read-out: Percent Control (100 uM Levosimendan)
T4 construct: gene RPS6KA1; Kin.Dom.2-C-terminal
Outline: as §1

[16] = biological target: SRPK1 (Homo sapiens, UniProt Q96SB4); settings: competition binding, % of control
Sequence of SRPK1 (Q96SB4 whole entry): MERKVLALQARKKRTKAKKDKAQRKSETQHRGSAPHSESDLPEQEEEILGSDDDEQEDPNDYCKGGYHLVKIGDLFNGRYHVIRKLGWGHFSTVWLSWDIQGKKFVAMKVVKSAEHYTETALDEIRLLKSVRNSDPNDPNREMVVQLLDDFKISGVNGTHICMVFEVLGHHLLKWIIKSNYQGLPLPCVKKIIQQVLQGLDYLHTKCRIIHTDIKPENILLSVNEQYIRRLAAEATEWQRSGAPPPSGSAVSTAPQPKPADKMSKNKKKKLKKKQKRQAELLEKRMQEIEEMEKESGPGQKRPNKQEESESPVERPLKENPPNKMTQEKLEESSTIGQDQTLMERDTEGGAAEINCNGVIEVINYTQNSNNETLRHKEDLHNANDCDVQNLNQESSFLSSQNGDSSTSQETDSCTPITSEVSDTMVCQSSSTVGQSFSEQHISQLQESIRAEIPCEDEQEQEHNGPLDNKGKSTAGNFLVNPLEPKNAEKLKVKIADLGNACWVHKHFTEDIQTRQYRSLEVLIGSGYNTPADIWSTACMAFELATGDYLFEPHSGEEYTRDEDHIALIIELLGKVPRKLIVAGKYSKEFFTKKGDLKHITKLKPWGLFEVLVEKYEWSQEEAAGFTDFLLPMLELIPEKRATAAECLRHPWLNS
Outline: as §1

[17] = biological target: T5, TRKC (Homo sapiens, UniProt Q16288); settings: competition binding, % of control; read-out: Percent Control (100 uM Levosimendan)
T5 construct: gene NTRK3
Outline: as §1

[18] = biological target: WNK1 (Homo sapiens, UniProt Q9H4A3); settings: competition binding, % of control; read-out: Percent Control (100 uM Levosimendan)
Outline: as §1

[19] = read-out: Percent Control (10 uM Levosimendan)
[20] = read-out: Percent Control (100 uM Levosimendan)

C[C@@H]1CC(=O)NN=C1c1ccc(NN=C(C#N)C#N)cc1 [levosimendan] gave a remaining binding at 100 µM [1] of 61%, a remaining binding at 100 µM [2] of 77% and a remaining binding at 100 µM [3] of 88%. It also gave a remaining binding at 100 µM [4] of 100%, a remaining binding at 100 µM [5] of 76% and a remaining binding at 10 µM [6, 19] of 62%. The remaining binding at 100 µM [6, 20] was 4.8%, the remaining binding at 10 µM [7, 19] was 100% and the remaining binding at 100 µM [7, 20] was 29%. For the same compound, the remaining binding at 100 µM [8] was 80%, the remaining binding at 100 µM [9] was 100% and the remaining binding at 100 µM [10] was 69%. The remaining binding at 100 µM [11] was 100%, the remaining binding at 100 µM [12] was 99% and the remaining binding at 10 µM [13, 19] was 15%. The remaining binding at 100 µM [13, 20] was 0%, the remaining binding at 10 µM [14, 19] was 49% and the remaining binding at 100 µM [14, 20] was 4.9%. The remaining binding at 100 µM [15] was 100%, the remaining binding at 10 µM [16, 19] was 36% and the remaining binding at 100 µM [16, 20] was 40%. For the same compound, the remaining binding at 100 µM [17] was 65% and the remaining binding at 100 µM [18] was 100%.
